The values below come from ChEMBL document CHEMBL3745699, “Structural insights into mechanisms for inhibiting amyloid β42 aggregation by non-catechol-type flavonoids” (Bioorg Med Chem, 2016).

Active and inactive are the calls of the source. The rule behind the calls is not given here.

A short description of series [1]: Drug degradation assessed as autoxidation at 50 uM under argon atmosphere at 37 degC after 2 to 48 hrs by UV-visible spectrophotometric analysis in presence of wild type Amyloid beta (1 to 42) (unknown origin). Format: physicochemical.
Series [2] in a line: Stability of the compound assessed as compound remaining after 48 hrs by HPLC analysis. As to conditions: read-out: Stability. Format: physicochemical.
Series [3] can be described thus: Drug degradation assessed as autoxidation at 500 uM at 4 degC after 4 hrs by UV-visible spectrophotometric analysis in presence of wild type Amyloid beta (1 to 42) (unknown origin). Format: physicochemical.
The target of series [4] is Amyloid-beta precursor protein (Homo sapiens) (UniProt P05067). The series can be described thus: Inhibition of wild type Amyloid beta (1 to 42) (unknown origin) aggregation at 50 uM under ambient condition by Thioflavin-T fluorescence assay.
Sequence of Amyloid-beta precursor protein (Homo sapiens) (P05067 whole entry): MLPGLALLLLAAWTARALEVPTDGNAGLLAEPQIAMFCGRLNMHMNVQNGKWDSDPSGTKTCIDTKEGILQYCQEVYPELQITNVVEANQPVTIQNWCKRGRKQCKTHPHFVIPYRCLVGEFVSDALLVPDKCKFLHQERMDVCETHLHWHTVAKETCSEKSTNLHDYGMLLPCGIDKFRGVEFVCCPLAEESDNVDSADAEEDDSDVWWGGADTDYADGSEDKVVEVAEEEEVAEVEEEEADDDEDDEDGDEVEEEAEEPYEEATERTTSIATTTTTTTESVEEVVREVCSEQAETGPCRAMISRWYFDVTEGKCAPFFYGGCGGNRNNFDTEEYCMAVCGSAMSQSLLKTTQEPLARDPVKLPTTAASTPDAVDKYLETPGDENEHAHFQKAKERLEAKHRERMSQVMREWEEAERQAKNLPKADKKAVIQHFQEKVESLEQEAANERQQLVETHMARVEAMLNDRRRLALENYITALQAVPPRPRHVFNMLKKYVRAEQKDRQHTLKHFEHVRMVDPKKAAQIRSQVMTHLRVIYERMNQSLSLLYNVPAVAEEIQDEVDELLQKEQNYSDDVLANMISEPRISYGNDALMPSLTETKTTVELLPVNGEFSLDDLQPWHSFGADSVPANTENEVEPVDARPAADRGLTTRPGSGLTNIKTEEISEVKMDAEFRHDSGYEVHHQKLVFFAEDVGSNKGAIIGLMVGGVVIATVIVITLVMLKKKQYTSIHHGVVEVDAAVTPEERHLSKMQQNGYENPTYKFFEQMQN
The target is the same in series [5]. The series can be described thus: Inhibition of wild type Amyloid beta (1 to 42) (unknown origin) aggregation at 50 to 100 uM under anaerobic condition after 5 days by Thioflavin-T fluorescence assay.
Series [6] shares this target. The series can be described thus: Inhibition of Amyloid beta (1 to 42) 13,14 A2 mutant (unknown origin) aggregation at 50 uM by Thioflavin-T fluorescence assay.
The target is the same in series [7]. The series can be described thus: Inhibition of elongation phase of HFIP-treated 15N-labelled wild type Amyloid beta (1 to 42) (unknown origin) at 50 uM by Thioflavin-T fluorescence assay in presence of fibril seed.
Series [8] has the same target. Briefly: Inhibition of nucleation phase of HFIP-treated 15N-labelled wild type Amyloid beta (1 to 42) (unknown origin) assessed as time required for nucleation at 50 uM by Thioflavin-T fluorescence assay in presence of fibril seed.
Series [9] can be described thus: Drug metabolism assessed as 2,4,6-trihydroxybenzaldehyde formation after 4 hrs by LC/Q Tof-MS/MS analysis. The class given is physicochemical.
Series [10] concerns the target Amyloid-beta precursor protein (Homo sapiens) (UniProt P05067). Conditions: 500 uM.
Description: Inhibition of elongation phase of HFIP-treated 15N-labelled wild type Amyloid beta (1 to 42) (unknown origin) at 500 uM by Thioflavin-T fluorescence assay in presence of fibril seed
Series [11] can be described thus: Drug degradation after 48 hrs by HPLC analysis. The class given is physicochemical. Conditions: read-out: Drug degradation.
A short description of series [12]: Drug degradation assessed as autoxidation at 500 uM at 4 degC after 1 hr by UV-visible spectrophotometric analysis in presence of wild type Amyloid beta (1 to 42) (unknown origin) relative to morin and datiscetin. The class given is physicochemical. As to conditions: read-out: Drug degradation.
Series [13] is described as follows: Drug degradation assessed as autoxidation at 50 uM at 37 degC after 2 to 48 hrs by UV-visible spectrophotometric analysis in presence of wild type Amyloid beta (1 to 42) (unknown origin). Format: physicochemical.
Series [14] in a line: Drug level treated with kaempferol after 4 hrs by LC/Q Tof-MS/MS analysis. The class given is physicochemical.
Series [15] concerns the target Amyloid-beta precursor protein (Homo sapiens) (UniProt P05067). Briefly: Inhibition of wild type amyloid beta (1 to 42) (unknown origin) aggregation at 50 uM by Thioflavin-T fluorescence assay.
Series [16] has the same target. As to conditions: 50 uM.
Description: Inhibition of wild type Amyloid beta (1 to 42) (unknown origin) aggregation at 50 uM after 48 hrs by TEM analysis

On to `O=c1c(O)c(-c2ccc(O)cc2O)oc2cc(O)cc(O)c12` [MORIN], for which the Stability result in [1] and in series [3] was “Stable” in each case. The remaining at 48 h in series [2] is over 80%. The inhibition result in series [4], in [5], in series [6] and in series [7] was “Active” in each case. Moreover, in [8], the TIME worked out at 10 h.
Turning to `O=c1c(O)c(-c2ccc(O)cc2)oc2cc(O)cc(O)c12` [KAEMPFEROL], in series [9], the Drug metabolism entry is on record as “metabolite_detected”. Further, the Stability result is “Stable” in series [1] and “Unstable” in series [13]. The inhibition entry in series [10], in [4] and in series [5] was “Active” throughout. For the same compound, the degraded at 48 h in series [11] was over 80%. Besides, in series [12], the degraded at 1 h, 500 µM was 70%. Besides, the TIME in series [8] amounted to 3 h.
Regarding `O=c1c(OOc2c(-c3ccc(O)cc3)oc3cc(O)cc(O)c3c2=O)c(-c2ccc(O)cc2)oc2cc(O)cc(O)c12`, in series [14], the Drug metabolism result is listed as “metabolite_detected”. Besides, the inhibition entry in series [15] is “Active”. For the same compound, the TIME in series [8] amounted to 3 h.
For `O=C1C(=O)C(O)(c2ccc(O)cc2)Oc2cc(O)cc(O)c21` (stereo not drawn), in [14], the Drug metabolism result is “metabolite_detected”. For the same compound, in [15], the inhibition entry is “Active”. In [8], the TIME is 3 h.
For `O=C(O)C(=O)c1ccc(O)cc1`, in that order: “metabolite_detected”, “Active” and 3 h.
For `O=C(O)C(=O)c1c(O)cc(O)cc1O`, in that order: “metabolite_detected”, “Active” and 3 h.
Regarding `O=c1cc(-c2ccc(O)cc2)oc2cc(O)cc(O)c12` [APIGENIN], the Drug metabolism result in [14] is reported as “metabolite_detected”. Further, the inhibition result in [15] was “Active”. Besides, in series [8], the TIME amounted to 3 h.
Taken in the same sequence, the figures for `O=C1Oc2cc(O)cc(O)c2C1=O` were “metabolite_detected”, “Active” and 3 h.
Turning to `O=c1c(O)c(-c2ccccc2O)oc2cc(O)cc(O)c12` [DATISCETIN], the Stability result in [1] and in [3] was “Stable” in each case. In addition, in series [2], the remaining at 48 h is over 80%. Moreover, the inhibition result in [4], in [16], in [5], in series [6] and in [7] was “Active” in each case. The TIME in series [8] amounted to 6 h.
Take `O=Cc1c(O)cc(O)cc1O` [PHLOROGLUCINALDEHYDE]: in series [14], the Drug metabolism result is “metabolite_detected”. Further, in series [15], the inhibition entry was “Active”. Also, the TIME in series [8] is 3 h.
For `O=C(O)c1ccc(O)cc1` [PARABEN], in that order: “metabolite_detected”, “Active” and 3 h.
As to `O=C(O)c1c(O)cc(O)cc1O`, the Drug metabolism result in series [14] is given as “metabolite_detected”. In addition, in series [15], the inhibition result is “Active”. Also, the TIME in series [8] was found to be 3 h.
